From patent US20150315179A1, “COMPOUNDS AND METHODS OF TREATING NEUROLOGICAL DISORDERS” (Torrey Pines Institute For Molecular Studies, priority 2014, published 2015)
pKd: −log10 of the molar value.

How the values were obtained:
[1] = test system: fibroblasts derived from AD patients; test: MTT cytotoxicity, AD fibroblasts; assay type: cell-based, human; conditions: 24 h exposure
Text: (4). Toxicity is another crucial limitation for successful drug development as evidenced by recent failure of γ-secretase inhibitors at the clinical trials due to cytotoxicity (Cole, S L and Vassar, R, 2007, Mol. Neurodeg. 2, 22-47; Doody R S, et al. 2013. N. Eng. J. Med. 369, 341-350). Therefore we measured cytotoxicity by very sensitive MTT assay as described previously (Hayes, C D., et al. 2013, BMC Medicine. 26, 11.81; 23; Hayes, C D., et al., 2012, PLoS One 7, e45841) in human primary neurons obtained from a commercial source (cat #1520, ScienCell, Carlsbad, Calif., USA) and fibroblasts derived directly from A D patients (cat# AG06263C, Coriell Institute Cell repository supported by NINDS, NIH). […] We directly used human neurons for toxicity studies so as to reduce the chances of future failure at a later stage due to toxicity.

[2] = test system: sAPPα release, fibroblasts derived from AD patients; test: sAPPα ELISA, AD fibroblasts; assay type: cell-based, human; conditions: 24 h
Protocol: (1). […] Therefore, we first used fibroblasts derived from AD patients (AG06263C, Coriell Cell repository, supported by NINDS/NIH) and exposed to THPI-244 for 24 h and measured sAPPα release by ELISA as done above for NT2 cells. […] We also confirmed dose-dependent effect of THPI-244 on sAPPα levels in human primary neurons transiently transfected with APP751 with Swedish mutation which is trafficked differently from WT APP and releases more sAPPα. Human neurons were grown on specially coated glass coverslips (cat # GG-18-PDL, NeuVitro, Germany). We could reproducibly achieve nearly 30% transfection efficiency using a nanoparticle based transfection reagent called Neuromag (cat # NM150299, OZ Biosciences, France).

[3] = test system: TrkA protein levels; test: TrkA protein immunoblot, NT2 cells with or without PKC inhibitor; assay type: cell-based, human
Protocol: (3). THPI-244 increases TrkA receptor levels independent of protein kinase C (PKC). Next to clarify whether increased sAPPα levels depends on increased TrkA activation, NT2 cells were treated with THPI-244 with or without TrkA inhibitor (cat # GW 441756, Tocris Bioscience) at 50 nM final concentration. After 24 h, sAPPα levels were quantified from the conditioned medium by immunoblots. […] We next wanted to address whether increased TrkA protein levels by THPI-244 depends on PKC since PKC activators are well-known to induce sAPPα secretion (Etcheberringaray, R., et al., 2004, PNAS, 101, 11141-11146). NT2 cells were similarly treated with THPI-244 at 100 nM with or without PKC inhibitor (GF 109203, cat #0741, Tocris Bioscience) at 1.0 nM and TrkA protein levels were quantified by immunoblots as shown in FIG. 1.10 (right). […] Thus increased sAPPα level by THPI-244 is through upregulation of TrkA receptor independent of PKC.

[4] = test system: C57BL/6 mice; test: Lethal dose (LD50) study in mice; assay type: in vivo, mouse
Text: Wild-type (WT) C57BL/6 mice aged about 6 months were used in the study. The compound THPI-244 was initially dissolved in 100% DMSO and then diluted to final 10% DMSO with phosphate buffered saline (PBS). […] Among these 6 mice, 3 mice received repeated injections (i.p) of compound THPI-244 for 5 days.

[5] = target: TrkA receptors (Homo sapiens, UniProt P04629); test: Octet Red label-free binding; conditions: biotinylated TrkA on SSA biosensors
Chain of TrkA receptors (P04629 33-796): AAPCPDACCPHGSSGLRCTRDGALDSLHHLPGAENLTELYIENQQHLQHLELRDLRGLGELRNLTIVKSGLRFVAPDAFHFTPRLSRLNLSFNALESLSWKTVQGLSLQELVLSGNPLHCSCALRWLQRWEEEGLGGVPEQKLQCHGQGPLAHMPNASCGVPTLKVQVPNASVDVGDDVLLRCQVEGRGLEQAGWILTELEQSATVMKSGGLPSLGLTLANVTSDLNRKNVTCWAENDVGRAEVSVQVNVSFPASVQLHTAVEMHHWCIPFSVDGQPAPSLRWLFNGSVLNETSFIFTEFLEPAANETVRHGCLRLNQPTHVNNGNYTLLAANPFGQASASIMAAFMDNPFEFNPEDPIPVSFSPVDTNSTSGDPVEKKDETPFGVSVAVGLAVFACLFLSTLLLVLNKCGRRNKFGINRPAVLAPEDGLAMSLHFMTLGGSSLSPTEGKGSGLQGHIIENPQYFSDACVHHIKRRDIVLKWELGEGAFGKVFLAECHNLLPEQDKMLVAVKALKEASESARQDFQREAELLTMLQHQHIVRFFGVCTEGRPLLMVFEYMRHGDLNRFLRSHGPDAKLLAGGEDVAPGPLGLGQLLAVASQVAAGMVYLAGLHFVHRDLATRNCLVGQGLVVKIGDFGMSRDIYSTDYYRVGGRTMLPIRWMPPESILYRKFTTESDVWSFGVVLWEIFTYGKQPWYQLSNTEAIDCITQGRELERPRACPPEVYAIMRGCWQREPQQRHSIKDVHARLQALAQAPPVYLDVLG
Protocol: FIGS. 9.1A and B illustrate that THPI-244 directly binds TrkA receptors as determined by label-free, real-time Octet Red detection system. FIG. 9.1A illustrates that biotinylated TrkA was loaded on to super-streptavidin (SSA) biosensors and after obtaining the baseline, were incubated with THPI-244 which dose-dependently bound TrkA receptors (Association). Incubation with kinetics buffer rapidly dissociated the binding.

[6] = test system: sAPPα; test: Mouse brain lysate immunoblot, sAPPα; assay type: in vivo; conditions: i.p. 100 mg/kg for 5 days, brain lysates
Protocol: FIGS. 9.2A and B illustrate that THPI-244 increases TrkA and sAPPα in the mouse brain. FIG. 9.2A illustrates that THPI-244 was administered to mice by i.p. injections at 100 mg/kg body weight for 5 days and the brain lysates were subjected to immunoblots. Specific antibodies were used to detect TrkA and sAPPα. […] Data are mean±SEM, n=3*, p<0.05, ***, p<0.001.

[7] = target: T1, TrkA dimer (Homo sapiens, UniProt P04629); test: TrkA dimerization immunoblot, NT2 cells; assay type: cell-based; conditions: 48 h
T1 construct: endogenous in cells; host or cells: NT2 cells (stably expressing APP751; no TrkA transfection described)
T1 sequence (P04629 33-796): as above
Protocol: FIGS. 9.4A and B illustrates that THPI-244 increases TrkA dimerization in NT2 cells. FIG. 9.4A illustrates that NT2 cells were treated with THPI-244 at 100 and 200 nM for 48 h and the cell lysates were subjected to immunoblots. TrkA monomer was detected at 140 kDa and dimer at 280 kDA. […] Data are mean±SEM, n=4, **, p<0.01, ***, p<0.001 by ANOVA.

[8] = test system: sAPPα; test: sAPPα increasing activity of THPI-244 analogs; assay type: cell-based
Text: (§1) The following table illustrates Chemical structures and properties of THPI-244 analogs selected out of 37 analogs, and each have significant sAPPα increasing activity. Toxicity is the minimum dose for toxicity.

[9] = test system: TrkA; test: TrkA increase by THPI-244 analogs; assay type: cell-based
Text: as §1

[10] = BBB of THPI-244 analogs
Text: as §1

O=C(Cc1ccccc1)N[C@H](CNc1nc(CN2CCN(C(=O)Cc3ccccc3)CC2)cs1)c1ccccc1 [THPI-244]
concentration from which cytotoxicity is significant [1]: 50 µM
concentration from which sAPPα increase is significant [2]: 50 nM
TrkA protein levels ([3]; THPI-244 100 nM): 197%
TrkA protein levels ([3]; THPI-244 100 nM with PKC inhibitor GF 109203 1.0 nM): 192%
death ([4]; 100 mg/kg i.p., 6 mice, monitored for 5 days): did not result in the death of any of the 6 mice
survival ([4]; 200 mg/kg, single mouse): survived without visible ill effects
lethal effect ([4]; repeated i.p. injections for 5 days, 3 mice): None of the mice showed any lethal effect
pKd [5]: 5.28
increase of sAPPα [6]: 89%
increase of TrkA dimer ([7]; 100 nM): 82%
increase of TrkA dimer ([7]; 200 nM): 134%
% sAPPα ↑ [8]: 257%
% TrkA ↑ [9]: 99%
% BBB [10]: 0.1%
